Data from patent US9936701B2, “Herbicidal compounds” (Syngenta Participations AG, priority 2013, dated 2018).

Experiments:
[1] = tested on: a variety of test species; experiment: Post-emergence herbicidal activity (glasshouse, sprayed after 8 days cultivation, evaluated after 13 days); type: in vivo; parameters: key: 5=total damage to plant; 0=no damage to plant; conditions: rate 1000 g/Ha, scale 0-5
Description: (§1) Seeds of a variety of test species were sown in standard soil in pots. After 8 days cultivation (post-emergence) under controlled conditions in a glasshouse (at 24/16° C., day/night; 14 hours light; 65% humidity), the plants were sprayed with an aqueous spray solution derived from the formulation of the technical active ingredient in acetone/water (50:50) solution containing 0.5% Tween 20 (polyoxyethelyene sorbitan monolaurate, CAS RN 9005-64-5). The test plants were then grown in a glasshouse under controlled conditions (at 24/16° C., day/night; 14 hours light; 65% humidity) and watered twice daily. After 13 days, the test was evaluated (5=total damage to plant; 0=no damage to plant).

[2] = tested on: a variety of test species; experiment: Pre-emergence herbicidal activity (glasshouse, sprayed one day after sowing, evaluated after 13 days); type: in vivo; parameters: key: 5=total damage to plant; 0=no damage to plant; conditions: application pre-emergence, rate 1000 g/Ha, scale 0-5
Description: as §1, with “After” for “After 8 days”, “for one day (pre-emergence)” for “(post-emergence)”

SMILES | ABUTH (Abutilon theophrasti) damage score, application post-emergence [1] | ALOMY (Alopecurus myosuroides) damage score, application post-emergence [1] | AMARE (Amaranthus retroflexus) damage score, application post-emergence [1] | ECHCG (Echinochloa crus-galli) damage score, application post-emergence [1] | SETFA (Setaria faberi) damage score, application post-emergence [1] | ZEAMX (Zea mays) damage score, application post-emergence [1] | Pre-emergence herbicidal damage score, ABUTH [2] | Pre-emergence herbicidal damage score, ALOMY [2] | Pre-emergence herbicidal damage score, AMARE [2] | Pre-emergence herbicidal damage score, ECHCG [2] | Pre-emergence herbicidal damage score, SETFA [2] | Pre-emergence herbicidal damage score, ZEAMX [2]
CC1=C(Br)C(=O)N(c2cc(C(C)(C)C)on2)C1O (stereo not drawn) [A1] | 5 | 5 | 5 | 5 | 5 | 4 | 5 | 2 | 5 | 4 | 5 | 1
CC1=C(Br)C(=O)N(c2cc(C)on2)C1O (stereo not drawn) [A3] | 5 | 4 | 5 | 5 | 5 | 3 | 5 | 3 | 5 | 3 | 5 | 2
CC1=C(Cl)C(=O)N(c2cc(C)on2)C1O (stereo not drawn) [A4] | 5 | 4 | 5 | 5 | 5 | 3 | 5 | 3 | 5 | 4 | 5 | 2
CC1=C(Br)C(=O)N(c2cc(C(F)(F)F)on2)C1O (stereo not drawn) [A6] | 4 | 2 | 4 | 3 | 2 | 0 | 0 | 1 | 0 | 1 | 1 | 0
COCC(C)(C)c1cc(N2C(=O)C(Cl)=C(C)C2O)no1 (stereo not drawn) [A7] | 5 | 5 | 4 | 5 | 5 | 5 | 5 | 3 | 5 | 4 | 4 | 2
COCC(C)(C)c1cc(N2C(=O)C(Br)=C(C)C2O)no1 (stereo not drawn) [A8] | 5 | 5 | 3 | 5 | 5 | 3 | 5 | 3 | 5 | 4 | 4 | 1
CC1=C(Cl)C(=O)N(c2cc(C(C)(C)C)on2)[C@H]1O [A9] | 5 | 4 | 5 | 5 | 5 | 5 |  |  |  |  |  | 
CC1=C(Cl)C(=O)N(c2cc(C(C)(C)C)on2)[C@H]1O [A10] |  |  | 5 | 5 | 5 |  |  |  |  |  |  | 
CCC1=C(I)C(=O)N(c2cc(C(C)(C)C)on2)C1O (stereo not drawn) [A13] | 5 | 5 | 5 | 5 | 5 | 2 | 3 | 3 | 5 | 3 | 3 | 1
CCC1=C(Br)C(=O)N(c2cc(C(C)(C)C)on2)C1O (stereo not drawn) [A14] | 5 | 5 | 4 | 5 | 5 | 4 | 5 | 3 | 5 | 4 | 5 | 2
CC(C)(C)c1cc(N2C(=O)C(Cl)=C(C3CC3)C2O)no1 (stereo not drawn) [A15] | 5 | 4 | 5 | 5 | 5 | 3 | 5 | 2 | 5 | 4 | 3 | 2
CCC1=C(Cl)C(=O)N(c2cc(C(C)(C)C)on2)C1O (stereo not drawn) [A16] | 5 | 5 | 5 | 5 | 5 | 5 | 5 | 4 | 5 | 5 | 5 | 3
